Structures are written as SMILES.

The subject of series [1] is guinea pigs. Description: Guinea pig carotid artery FeCl3 injury arterial thrombosis model. Type of series: in vivo. As to conditions: clopidogrel 1 mg/kg PO 4 h prior alone, 90 min period, n=5.
Series [2] has as its target T1, PAR1 (Cavia porcellus, UniProt A0A286XH07).
T1 sequence (A0A286XH07 24-426): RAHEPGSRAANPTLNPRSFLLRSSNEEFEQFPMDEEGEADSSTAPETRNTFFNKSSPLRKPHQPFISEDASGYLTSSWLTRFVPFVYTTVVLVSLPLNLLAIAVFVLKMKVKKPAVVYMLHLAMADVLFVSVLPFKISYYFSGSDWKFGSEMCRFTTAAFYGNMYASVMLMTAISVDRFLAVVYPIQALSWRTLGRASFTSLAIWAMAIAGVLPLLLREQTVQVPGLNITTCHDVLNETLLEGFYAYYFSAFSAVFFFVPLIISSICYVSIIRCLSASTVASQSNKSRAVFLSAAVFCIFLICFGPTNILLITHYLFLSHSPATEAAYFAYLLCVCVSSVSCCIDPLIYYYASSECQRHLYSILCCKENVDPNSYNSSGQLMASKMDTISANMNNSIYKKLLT
The series can be described thus: Activation of guinea pig platelets. Type of series: cell-based.

For series [3] the following is noted: human, ref Kosoglou, 2012 #2596, cited from earlier work.

For the molecule `COC(=O)[C@H](c1ccccc1Cl)N1CCc2sccc2C1` [clopidogrel], the “Protection against arterial occlusion when used alone” value in series [1] was “non-significant protection”. Consider `CC(C)C[C@H](NC(=O)[C@H](CC(C)C)NC(=O)[C@H](Cc1ccccc1)NC(=O)[C@@H](N)CO)C(=O)N[C@@H](CCCN=C(N)N)C(=O)N[C@@H](CC(N)=O)C(=O)O` [SFLLRN], for which, in series [2], the EC50 (in general, the midpoint of the concentration-response curve) was found to be 2500 nM. In the case of `CCOC(=O)N[C@@H]1CC[C@@H]2[C@@H](C1)C[C@H]1C(=O)O[C@H](C)[C@H]1[C@H]2/C=C/c1ccc(-c2cccc(F)c2)cn1` [vorapaxar], in series [3] (single loading dose), the “Pharmacodynamic (PD) half life / duration of inhibition of platelet function” value is “up to 3 weeks”. For the same molecule, the Plasma half-life in series [3] is 120 to 264 h.

Values taken from article PMC3423084 (Circulation, 2012).
